Pest or weed control and plant injury data for four compounds are collected here from patent publication US12077503B2, “Substituted cyclic amides and their use as herbicides” (FMC CORPORATION, priority 2015, dated 2024).

Molecules are shown by their SMILES.

What all share (assay type): in vivo
Test [1] concerns ducksalad (Heteranthera limosa). Description: Test B flooded paddy test. The settings on record: Heteranthera limosa, 250 g ai/ha, Flood; 0 to 100 scale where 0 is no effect and 100 is complete control; read-out: Ducksalad plant response rating. The method, boiled down:
(§1)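 Evaluation by eye, against controls, occurred 13–15 d post-treatment in a greenhouse, using a 0 (no effect) to 100 (complete control) scale. Application was into the paddy water, 3 cm deep over the soil, on 2-leaf plants.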

The test system of test [2] is barnyardgrass (Echinochloa crus-galli). Put plainly: Test B flooded paddy test. The settings on record: Echinochloa crus-galli, 250 g ai/ha, Flood; 0 to 100 scale where 0 is no effect and 100 is complete control; read-out: Barnyardgrass plant response rating. The method, boiled down:
as §1

The subject of test [3] is rice (Oryra sativa). Put plainly: Test B flooded paddy test. Particulars: Oryza sativa, 250 g ai/ha, Flood; 0 to 100 scale where 0 is no effect and 100 is complete control; read-out: Rice plant response rating. The method in brief: as §1
The test system of test [4] is sedge, umbrella (small-flower umbrella sedge, Cyperus difformis). Put plainly: Test B flooded paddy test. Particulars: Cyperus difformis, 250 g ai/ha, Flood; 0 to 100 scale where 0 is no effect and 100 is complete control; read-out: Sedge, Umbrella plant response rating. The method in brief: as §1
Test [5] has as its system giant foxtail (Setaria faberii). Put plainly: Test A postemergence. Particulars: Setaria faberi, post-emergence, 240 h, postemergence; for pest or weed control at 125 g/ha: 125 g ai/ha, visual injury vs untreated controls after approx. 10 d, 0 = no effect, 100 = complete control, read-out: Foxtail, Giant plant response rating (0 to 100 scale); for pest or weed control at 500 g/ha: 500 g ai/ha, 0 to 100 scale, 0 is no effect, 100 is complete control, read-out: Foxtail, Giant plant response rating. The method in brief:
(§2)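 Seeds sprayed preemergence with a directed soil spray, or plants at 2 to 10 cm height and one- to two-leaf stage sprayed postemergence, with test chemicals in a non-phytotoxic solvent mixture containing surfactant, in loam soil–sand blend. Injury rated visually against untreated controls after about 10 d in greenhouse, 0 (no effect) to 100 (complete control).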

The test system of test [6] is corn (Zea mays). Description: Test A postemergence. The settings on record: Zea mays, post-emergence, 240 h, postemergence; for plant injury at 125 g/ha: 125 g ai/ha, visual injury vs untreated controls after approx. 10 d, 0 = no effect, 100 = complete control, read-out: Corn plant response rating (0 to 100 scale); for plant injury at 500 g/ha: 500 g ai/ha, 0 to 100 scale, 0 is no effect, 100 is complete control, read-out: Corn plant response rating. The method, boiled down: as §2

In test [7] the test system is ragweed (common ragweed, Ambrosia elatior). Description: Test A postemergence. Particulars: Ambrosia artemisiifolia, post-emergence, 240 h, postemergence; for pest or weed control at 125 g/ha: 125 g ai/ha, visual injury vs untreated controls after approx. 10 d, 0 = no effect, 100 = complete control, read-out: Ragweed plant response rating (0 to 100 scale); for pest or weed control at 500 g/ha: 500 g ai/ha, 0 to 100 scale, 0 is no effect, 100 is complete control, read-out: Ragweed plant response rating. The method, boiled down:
as §2

Test [8] deals with wheat (Triticum aestivum). Description: Test A postemergence. Particulars: Triticum aestivum, post-emergence, 240 h, postemergence; for plant injury at 125 g/ha: 125 g ai/ha, visual injury vs untreated controls after approx. 10 d, 0 = no effect, 100 = complete control, read-out: Wheat plant response rating (0 to 100 scale); for plant injury at 500 g/ha: 500 g ai/ha, 0 to 100 scale, 0 is no effect, 100 is complete control, read-out: Wheat plant response rating. The method, boiled down:
as §2

Test [9] relates to ryegrass, Italian (Italian ryegrass, Lolium multiflorum). Put plainly: Test A postemergence. The settings on record: Lolium multiflorum, post-emergence, 240 h, postemergence; for pest or weed control at 125 g/ha: 125 g ai/ha, visual injury vs untreated controls after approx. 10 d, 0 = no effect, 100 = complete control, read-out: Ryegrass, Italian plant response rating (0 to 100 scale); for pest or weed control at 500 g/ha: 500 g ai/ha, 0 to 100 scale, 0 is no effect, 100 is complete control, read-out: Ryegrass, Italian plant response rating. The method in brief: as §2

Test [10] has as its system Galium (catchweed bedstraw, Galium aparine). Put plainly: Test A postemergence. The settings on record: Galium, post-emergence, 240 h, postemergence; for pest or weed control at 125 g/ha: 125 g ai/ha, visual injury vs untreated controls after approx. 10 d, 0 = no effect, 100 = complete control, read-out: Galium plant response rating (0 to 100 scale); for pest or weed control at 500 g/ha: 500 g ai/ha, 0 to 100 scale, 0 is no effect, 100 is complete control, read-out: Galium plant response rating. The method, boiled down:
as §2

Test [11] has as its system pigweed (Amaranthus retroflexus). Put plainly: Test A postemergence. Particulars: Amaranthus retroflexus, post-emergence, 240 h, postemergence; for pest or weed control at 125 g/ha: 125 g ai/ha, visual injury vs untreated controls after approx. 10 d, 0 = no effect, 100 = complete control, read-out: Pigweed plant response rating (0 to 100 scale); for pest or weed control at 500 g/ha: 500 g ai/ha, 0 to 100 scale, 0 is no effect, 100 is complete control, read-out: Pigweed plant response rating. The method in brief:
as §2

For test [12], the system named is blackgrass (Alopecurus myosuroides). Description: Test A postemergence. Particulars: Alopecurus myosuroides, post-emergence, 240 h, postemergence; for pest or weed control at 125 g/ha: 125 g ai/ha, visual injury vs untreated controls after approx. 10 d, 0 = no effect, 100 = complete control, read-out: Blackgrass plant response rating (0 to 100 scale); for pest or weed control at 500 g/ha: 500 g ai/ha, 0 to 100 scale, 0 is no effect, 100 is complete control, read-out: Blackgrass plant response rating. The method, boiled down:
as §2

Test [13] concerns Kochia (Kochia scoparia). Put plainly: Test A postemergence. Particulars: Bassia scoparia, post-emergence, 240 h, postemergence; for pest or weed control at 125 g/ha: 125 g ai/ha, visual injury vs untreated controls after approx. 10 d, 0 = no effect, 100 = complete control, read-out: Kochia plant response rating (0 to 100 scale); for pest or weed control at 500 g/ha: 500 g ai/ha, 0 to 100 scale, 0 is no effect, 100 is complete control, read-out: Kochia plant response rating. The method in brief:
as §2

Test [14] concerns pigweed (Amaranthus retroflexus). Description: Test A preemergence. Particulars: Amaranthus retroflexus, pre-emergence, 240 h, preemergence, 0 to 100 scale where 0 is no effect and 100 is complete control, read-out: Pigweed plant response rating; for pest or weed control at 125 g/ha: 125 g ai/ha, visual injury rating, approximately 10 d; for pest or weed control at 500 g/ha: 500 g ai/ha.

With `Cc1c(F)cccc1NC(=O)[C@H]1C(=O)N(C)C[C@@H]1c1ccc(C(F)(F)F)nc1` [Compound 1197], the pest or weed control at 250 g/ha in test [1] came out at 100%; in [2], 70%; in test [3], 0%; in test [4], 0%. The pest or weed control at 125 g/ha in [5] is 90%; in test [7], 50%; in test [9] it was 30%; in test [10], 60%; in test [11] it was 50%; in [12] it was 50%. The figures for the pest or weed control at 125 g/ha in [13] and in test [14] were 70% and 80%, respectively. Also, the pest or weed control at 500 g/ha in test [5] came out at 90%; in test [7], 60%; in [9] it was 60%; in test [10], 60%; in test [11], 70%; in test [12], 50%. The pest or weed control at 500 g/ha in test [13] and in [14] was 80% each time. The results for the plant injury at 125 g/ha in test [6] and in [8] were 80% and 50%, respectively. Further, the plant injury at 500 g/ha was 90% in test [6] and 60% in test [8].

As to `COc1cc([C@H]2CN(C)C(=O)[C@@H]2C(=O)Nc2cccc(F)c2F)cc(OC)c1OC` [Compound 1210], the pest or weed control at 250 g/ha was determined as 30% in [1], 50% in [2], 20% in test [3] and 0% in [4]. Further, the pest or weed control at 125 g/ha in test [5] worked out at 90%; in test [7], 0%; in [9], 30%; in test [10], 0%; in test [11] it was 0%; in [12], 0%. Moreover, the pest or weed control at 125 g/ha in test [13] and in test [14] was 0% each time. In addition, the pest or weed control at 500 g/ha is 90% in test [5]; 0% in [7]; 60% in test [9]; 0% in [10]; 0% in [11]; 50% in [12]. The pest or weed control at 500 g/ha in [13] and in test [14] was 0% in each case. Further, the plant injury at 125 g/ha in test [6] and in [8] was 0% each time. Further, the plant injury at 500 g/ha in test [6] is 50%; in [8], 60%.

In the case of `COc1cc(C(F)(F)F)ccc1[C@H]1CNC(=O)[C@@H]1C(=O)Nc1ccccc1F` [Compound 1202], the pest or weed control at 250 g/ha in [1] worked out at 100%; in [2], 0%; in test [3], 0%; in test [4], 0%. The pest or weed control at 125 g/ha amounted to 70% in test [5]; 0% in [7]; 0% in test [9]; 0% in test [10]; 0% in test [11]; 0% in [12]. Further, the figures for the pest or weed control at 125 g/ha in [13] and in test [14] were 30% and 0%, respectively. Further, the pest or weed control at 500 g/ha was determined as 90% in test [5]; 20% in test [7]; 0% in test [9]; 40% in test [10]; 20% in [11]; 40% in [12]. Besides, the values for the pest or weed control at 500 g/ha in test [13] and in [14] were 40% and 0%, respectively. Moreover, the plant injury at 125 g/ha in test [6] stood at 20%; in [8], 0%. The plant injury at 500 g/ha in test [6] is 30%; in test [8] it was 50%.

As for `COc1ccc([C@H]2CN(C)C(=O)[C@@H]2C(=O)Nc2cccc(F)c2F)c(OC)c1` [Compound 1209], the pest or weed control at 250 g/ha was 50% in [1], 0% in [2], 0% in test [3] and 0% in test [4]. The pest or weed control at 125 g/ha in [5] is 80%; in [7] it was 0%; in test [9], 0%; in test [10], 0%; in test [11], 0%; in test [12], 0%. Moreover, the pest or weed control at 125 g/ha in test [13] and in test [14] was 0% each time. Besides, the pest or weed control at 500 g/ha came to 90% in test [5]; 0% in test [7]; 20% in test [9]; 30% in test [10]; 0% in test [11]; 30% in test [12]. For the same compound, the pest or weed control at 500 g/ha in [13] was 50%; in [14] it was 0%. For the same compound, the plant injury at 125 g/ha in test [6] and in test [8] was 0% each time. Besides, the plant injury at 500 g/ha in [6] is 0%; in [8], 20%.
